Measurements from PMC6600388 (2019).
Where two headings read alike, the source gives them in different places. Non-standard residues stand in square brackets, D forms with d. Residues, ends and D or L forms follow the SMILES beside them. βAla = NCCC(=O)O

Tested on: human red blood cells

CC[C@H](C)[C@H](NC(=O)[C@H](Cc1ccccc1)NC(=O)[C@H](CCC(=O)O)NC(=O)[C@H](CCC(=O)O)NC(=O)[C@@H](NC(=O)[C@H](Cc1ccccc1)NC(=O)[C@H](CCC(=O)O)NC(=O)[C@H](Cc1ccccc1)NC(=O)CNC(=O)CCNC(=O)[C@@H](N)CS)[C@@H](C)CC)C(=O)N[C@@H](CCC(=O)O)C(=O)N[C@@H](CC(N)=O)C(=O)NCC(=O)N[C@@H](CC(C)C)C(=O)N[C@@H](CCCCN)C(=O)N[C@@H](CC(N)=O)C(=O)N[C@@H](CC(C)C)C(=O)N[C@H](C(=O)N[C@@H](CC(=O)O)C(=O)N[C@@H](Cc1c[nH]c2ccccc12)C(=O)N[C@@H](Cc1c[nH]c2ccccc12)C(=O)N[C@@H](Cc1ccc(O)cc1)C(=O)NCC(=O)N[C@@H](Cc1ccc(O)cc1)C(=O)NCC(=O)N[C@@H](CCCNC(=N)N)C(=O)N[C@@H](CCCCN)C(=O)N[C@@H](CCCCN)C(=O)N[C@@H](CCCNC(=N)N)C(=O)N[C@@H](CCCNC(=N)N)C(=O)N[C@@H](CCC(N)=O)C(=O)N[C@@H](CCCNC(=N)N)C(=O)N[C@@H](CCCNC(=N)N)C(N)=O)[C@@H](C)CC [Peptide 60] (H-C[βAla]GFEFIEEFIENGLKNLIDWWYGYGRKKRRQRR-NH2)
IC50 (red cells of human, pH 5.5): 1.14 µM
IC50 (red cells of human, pH 7.4): 12.8 µM

CC[C@H](C)[C@H](NC(=O)[C@H](CC(C)C)NC(=O)[C@H](CCC(=O)O)NC(=O)[C@H](CCC(=O)O)NC(=O)[C@@H](NC(=O)[C@H](CCC(=O)O)NC(=O)[C@H](CCC(=O)O)NC(=O)[C@H](Cc1ccccc1)NC(=O)[C@H](CC(C)C)NC(=O)CNC(=O)[C@@H](N)CS)[C@@H](C)CC)C(=O)N[C@@H](CCC(=O)O)C(=O)N[C@@H](CCC(=O)O)C(=O)NCC(=O)N[C@@H](CC(C)C)C(=O)N[C@@H](CCC(=O)O)C(=O)N[C@@H](CC(N)=O)C(=O)N[C@@H](CC(C)C)C(=O)N[C@H](C(=O)N[C@@H](CC(=O)O)C(=O)N[C@@H](Cc1c[nH]c2ccccc12)C(=O)N[C@@H](Cc1c[nH]c2ccccc12)C(=O)N[C@@H](Cc1ccc(O)cc1)C(=O)NCC(=O)N[C@@H](Cc1ccc(O)cc1)C(=O)NCC(=O)N[C@@H](CCCNC(=N)N)C(=O)N[C@@H](CCCCN)C(=O)N[C@@H](CCCCN)C(=O)N[C@@H](CCCNC(=N)N)C(=O)N[C@@H](CCCNC(=N)N)C(=O)N[C@@H](CCC(N)=O)C(=O)N[C@@H](CCCNC(=N)N)C(=O)N[C@@H](CCCNC(=N)N)C(N)=O)[C@@H](C)CC [Peptide 68] (H-CGLFEEIEELIEEGLENLIDWWYGYGRKKRRQRR-NH2)
IC50 (red cells of human, pH 5.5): 4.11 µM
IC50 (red cells of human, pH 7.4): > 20 µM

CC[C@H](C)[C@H](NC(=O)[C@H](C)NC(=O)[C@H](Cc1c[nH]cn1)NC(=O)[C@H](Cc1ccccc1)NC(=O)[C@H](CC(C)C)NC(=O)CNC(=O)[C@@H](N)CS)C(=O)N[C@@H](C)C(=O)N[C@@H](Cc1c[nH]cn1)C(=O)N[C@@H](Cc1ccccc1)C(=O)N[C@H](C(=O)N[C@@H](Cc1c[nH]cn1)C(=O)NCC(=O)NCC(=O)N[C@@H](Cc1c[nH]c2ccccc12)C(=O)N[C@@H](Cc1c[nH]cn1)C(=O)NCC(=O)N[C@@H](CC(C)C)C(=O)N[C@H](C(=O)N[C@@H](Cc1c[nH]cn1)C(=O)NCC(=O)N[C@@H](Cc1c[nH]c2ccccc12)C(=O)N[C@@H](Cc1ccc(O)cc1)C(=O)NCC(=O)N[C@@H](Cc1ccc(O)cc1)C(=O)NCC(=O)N[C@@H](CCCNC(=N)N)C(=O)N[C@@H](CCCCN)C(=O)N[C@@H](CCCCN)C(=O)N[C@@H](CCCNC(=N)N)C(=O)N[C@@H](CCCNC(=N)N)C(=O)N[C@@H](CCC(N)=O)C(=O)N[C@@H](CCCNC(=N)N)C(=O)N[C@@H](CCCNC(=N)N)C(N)=O)[C@@H](C)CC)[C@@H](C)CC [Peptide 7] (H-CGLFHAIAHFIHGGWHGLIHGWYGYGRKKRRQRR-NH2)
IC50 (red cells of human, pH 5.5): 5.9 µM
IC50 (red cells of human, pH 7.4): 0.3 µM

N=C(N)NCCC[C@H](NC(=O)[C@H](CCCNC(=N)N)NC(=O)[C@H](CCC(N)=O)NC(=O)[C@H](CCCNC(=N)N)NC(=O)[C@H](CCCNC(=N)N)NC(=O)[C@H](CCCCN)NC(=O)[C@H](CCCCN)NC(=O)[C@H](CCCNC(=N)N)NC(=O)CNC(=O)[C@H](Cc1ccc(O)cc1)NC(=O)[C@@H](N)CS)C(N)=O [Peptide 1, reference compound] (H-CYGRKKRRQRR-NH2)
IC50 (red cells of human, pH 5.5): > 20 µM
IC50 (red cells of human, pH 7.4): > 20 µM

CC[C@H](C)[C@H](NC(=O)[C@H](CCC(=O)O)NC(=O)CNC(=O)[C@H](Cc1ccccc1)NC(=O)[C@H](CC(C)C)NC(=O)CNC(=O)[C@@H](N)CS)C(=O)N[C@@H](CCC(=O)O)C(=O)N[C@@H](CCC(=O)O)C(=O)N[C@@H](Cc1ccccc1)C(=O)N[C@H](C(=O)N[C@@H](CCC(=O)O)C(=O)N[C@@H](CCC(=O)O)C(=O)NCC(=O)N[C@@H](CC(C)C)C(=O)N[C@@H](CCC(=O)O)C(=O)N[C@@H](CC(N)=O)C(=O)N[C@@H](CC(C)C)C(=O)N[C@H](C(=O)N[C@@H](CC(=O)O)C(=O)N[C@@H](Cc1c[nH]c2ccccc12)C(=O)N[C@@H](Cc1c[nH]c2ccccc12)C(=O)N[C@@H](Cc1ccc(O)cc1)C(=O)NCC(=O)N[C@@H](Cc1ccc(O)cc1)C(=O)NCC(=O)N[C@@H](CCCNC(=N)N)C(=O)N[C@@H](CCCCN)C(=O)N[C@@H](CCCCN)C(=O)N[C@@H](CCCNC(=N)N)C(=O)N[C@@H](CCCNC(=N)N)C(=O)N[C@@H](CCC(N)=O)C(=O)N[C@@H](CCCNC(=N)N)C(=O)N[C@@H](CCCNC(=N)N)C(N)=O)[C@@H](C)CC)[C@@H](C)CC [Peptide 65] (H-CGLFGEIEEFIEEGLENLIDWWYGYGRKKRRQRR-NH2)
IC50 (red cells of human, pH 5.5): 3.15 µM
IC50 (red cells of human, pH 7.4): > 20 µM

CGLFEAIEGFIENGWEGMIDGWYG(Peg 27)YGRKKRRQRR [Peptide 36f]
IC50 (read-out: RBC Lysis IC50, pH 5.5, pH 5.5): 28 µM
IC50 (read-out: RBC Lysis IC50, pH 7.4, pH 7.4): > 100 µM

CC[C@H](C)[C@H](NC(=O)[C@H](CC(C)C)NC(=O)[C@H](CCC(=O)O)NC(=O)[C@H](CCC(=O)O)NC(=O)[C@@H](NC(=O)[C@H](CCC(=O)O)NC(=O)[C@H](CCC(=O)O)NC(=O)[C@H](Cc1ccccc1)NC(=O)[C@H](CC(C)C)NC(=O)CNC(=O)[C@@H](N)CS)[C@@H](C)CC)C(=O)N[C@@H](CCC(=O)O)C(=O)N[C@@H](CCC(=O)O)C(=O)NCC(=O)N[C@@H](CC(C)C)C(=O)N[C@@H](CCC(=O)O)C(=O)N[C@@H](CC(N)=O)C(=O)N[C@@H](CC(C)C)C(=O)N[C@H](C(=O)N[C@@H](CC(=O)O)C(=O)N[C@@H](Cc1c[nH]c2ccccc12)C(=O)N[C@@H](Cc1c[nH]c2ccccc12)C(=O)N[C@@H](Cc1ccc(O)cc1)C(=O)NCC(=O)N[C@@H](Cc1ccc(O)cc1)C(=O)NCC(=O)N[C@@H](Cc1c[nH]cn1)C(=O)N[C@@H](CCCCN)C(=O)N[C@@H](CCCCN)C(=O)N[C@@H](Cc1c[nH]cn1)C(=O)N[C@@H](Cc1c[nH]cn1)C(=O)N[C@@H](CCC(N)=O)C(=O)N[C@@H](Cc1c[nH]cn1)C(=O)N[C@@H](CCCNC(=N)N)C(N)=O)[C@@H](C)CC [Peptide 69] (H-CGLFEEIEELIEEGLENLIDWWYGYGHKKHHQHR-NH2)
IC50 (red cells of human, pH 5.5): 8.73 µM
IC50 (red cells of human, pH 7.4): > 20 µM
